Source: US20260207798A1, “CYCLIC PEPTIDES AS PET IMAGING AGENTS OF GRANZYME B” (priority 2022, published 2026)
Numbered stars: 1 amine (or outer) side, 2 acyl side, 3 side chain; on linkers, the order of the positions; unused ones are H or OH. Bridge positions count the residues as written; N and C are the ends. Square brackets hold non-standard residues; d marks the D form. Peptide text beside a SMILES is read from it. I, II: the chains in the order shown. * marks the point of attachment. X5 = O=C(CCOCCOCCOCCOCCOCCOCCOCCOCCOCCOCCOCCC(=O)[*:2])[*:1]; Pro(trans-4-F) = O=C(O)[C@@H]1C[C@@H](F)CN1; Propionyl = CCC(=O)*

Molecular target: human Granzyme B (hGranzyme B) (Homo sapiens, UniProt P10144)
Assay: Surface plasmon resonance (SPR) binding kinetics to hGranzyme B
Settings: 25° C., 1:1 binding model, KD=kd/ka; read-out: Granzyme B SPR Kd
Experimental: The kinetics of test peptide binding to human Granzyme B (hGranzyme B) was determined by SPR. All experiments were performed at 25° C. using the Biacore 8k+ instrument (Cytiva, Marlborough, MA). The Biacore 8k+ Insight Evaluation Software Version 3.0 was used to fit the data with a 1:1 binding model to determine the association rate constant ka (M^−1s^−1, where “M” ~equals molar and “s” ~equals seconds) and the dissociation rate constant kd (s^−1). These rate constants were used to calculate the equilibrium dissociation constant. KD (M)=kd/ka.
To measure the binding kinetics of peptides of interest, surfaces were prepared by a capture method to a Series S Streptavidin (SA) chip using a 1×HBS-EP+ running buffer (Cytiva). hGranzyme B was diluted to 10 μg/mL in IX HBS-EP+ and flowed over spot 2 of each flow cell on the chip at a flow rate of 10 ul/min for 20 s to achieve a level of capture of ~1100 RU. An unmodified spot 1 of each flow cell was used as a matrix binding control or reference surface. Binding kinetics were measured using single cycle kinetics at 25° C. by injecting 5 concentrations with 3-fold serial dilutions of test peptides from 0.01 μM to 1 μM. Compound dilutions were performed manually in a running buffer containing 1×HBS-EP+(Cytiva), and a final concentration of 2% DMSO. The interaction analyses over hGranzyme B, were performed using a 120 s association time and a 900 s dissociation time. All experiments were conducted at a flow rate of 50 μL/min with a data collection rate of 10 Hz.
Peptide dilution series included 2 zero concentration points (no compound) which were averaged and subtracted from the peptide concentration injection as DMSO control responses. Binding data acquired from the reference surface (matrix binding control) were subtracted from the binding data for hGranzyme B surface on the chip to determine specific binding. Next, the association phase data were solvent corrected to account for any signal fluctuation throughout the experiment due to subtle DMSO concentration differences. Corrected response data were analyzed using the Biacore 8k+ Evaluation Software Version 3.0 according to the manufacturer. SPR data for representative compounds of the disclosure are found in Table 8.

| Kd | Structure (SMILES) |
| --- | --- |
| 5.1 nM | CCC(=O)NCCCC[C@H](NC(=O)CNC(=O)CNC(=O)[C@@H]1CSCC(=O)N[C@@H](Cc2ccccc2)C(=O)N[C@@H](CC(N)=O)C(=O)N[C@@H](Cc2ccccc2)C(=O)N[C@@H](CCC(=O)O)C(=O)N[C@@H](CC(=O)O)C(=O)N[C@@H](CCC(N)=O)C(=O)N[C@@H](CO)C(=O)N2C[C@H](F)C[C@H]2C(=O)N[C@@H](CC(=O)O)C(=O)N[C@@H]([C@@H](C)O)C(=O)N[C@@H](Cc2c[nH]c3ccccc23)C(=O)N[C@@H](CCC(N)=O)C(=O)N2CCC[C@H]2C(=O)N1)C(N)=O [Compound 14a, *F.N.F.E.D.Q.S.Prot4F.D.T.W.Q.P.*C.G.G.K(Prop).NH2] ({CH2CO}-FNFEDQS[Pro(trans-4-F)]DTWQPCGGK(Propionyl)-NH2; thioether N-14) |
| 3.7 nM | CCC(=O)NCCCC[C@H](NC(=O)CNC(=O)CNC(=O)[C@@H]1CSCC(=O)N[C@@H](Cc2ccccc2)C(=O)N[C@@H](CC(N)=O)C(=O)N[C@@H](Cc2ccccc2)C(=O)N[C@@H](CCC(=O)O)C(=O)N[C@@H](CC(=O)O)C(=O)N[C@@H](CCC(N)=O)C(=O)N[C@@H](CO)C(=O)N2CCC[C@H]2C(=O)N[C@@H](CC(=O)O)C(=O)N[C@@H]([C@@H](C)O)C(=O)N[C@@H](Cc2c[nH]c3ccccc23)C(=O)N[C@@H](CCC(N)=O)C(=O)N2CCC[C@H]2C(=O)N1)C(N)=O [Compound 15a, *F.N.F.E.D.Q.S.P.D.T.W.Q.P.*C.G.G.K(Prop).NH2] ({CH2CO}-FNFEDQSPDTWQPCGGK(Propionyl)-NH2; thioether N-14) |
| < 0.3 nM | C[C@@H]1NC(=O)[C@H](CO)NC(=O)[C@H](CCC(N)=O)NC(=O)[C@H](CC(=O)O)NC(=O)[C@H](CCC(=O)O)NC(=O)[C@H](Cc2ccccc2)NC(=O)[C@H](CC(N)=O)NC(=O)[C@H](Cc2ccccc2)NC(=O)CSC[C@@H](C(=O)NCC(=O)NCC(=O)N[C@@H](CCCCNC(=O)CCOCCOCCOCCOCCOCCOCCOCCOCCOCCOCCOCCC(=O)NCCCC[C@H](NC(=O)CNC(=O)CNC(=O)[C@@H]2CSCC(=O)N[C@@H](Cc3ccccc3)C(=O)N[C@@H](CC(N)=O)C(=O)N[C@@H](Cc3ccccc3)C(=O)N[C@@H](CCC(=O)O)C(=O)N[C@@H](CC(=O)O)C(=O)N[C@@H](CCC(N)=O)C(=O)N[C@@H](CO)C(=O)N[C@@H](C)C(=O)N[C@@H](CC(=O)O)C(=O)N[C@@H]([C@@H](C)O)C(=O)N[C@@H](Cc3c[nH]c4ccccc34)C(=O)N[C@@H](CCC(N)=O)C(=O)N3CCC[C@H]3C(=O)N2)C(N)=O)C(N)=O)NC(=O)[C@@H]2CCCN2C(=O)[C@H](CCC(N)=O)NC(=O)[C@H](Cc2c[nH]c3ccccc23)NC(=O)[C@H]([C@@H](C)O)NC(=O)[C@H](CC(=O)O)NC1=O [Compound 17a, (*F.N.F.E.D.Q.S.A.D.T.W.Q.P.*C.G.G.K.NH2)-PEG11-(*F.N.F.E.D.Q.S.A.D.T.W.Q.P.*C.G.G.K.NH2)] (I: {CH2CO}-FNFEDQSADTWQPCGGK-NH2 / II: {CH2CO}-FNFEDQSADTWQPCGGK-NH2; linker I:17-II:17 via X5 (inferred); thioether I:N-I:14, II:N-II:14 (inferred)) |
